Data: publication PMC11952451 (bioRxiv, 2025)
Entries after “also recorded” stand apart in the source; their conditions may differ.

What was measured:
[1] = target: T1, B. subtilis DnaN (Bacillus subtilis, UniProt P05649); assay type: binding
T1 sequence (P05649 1-378): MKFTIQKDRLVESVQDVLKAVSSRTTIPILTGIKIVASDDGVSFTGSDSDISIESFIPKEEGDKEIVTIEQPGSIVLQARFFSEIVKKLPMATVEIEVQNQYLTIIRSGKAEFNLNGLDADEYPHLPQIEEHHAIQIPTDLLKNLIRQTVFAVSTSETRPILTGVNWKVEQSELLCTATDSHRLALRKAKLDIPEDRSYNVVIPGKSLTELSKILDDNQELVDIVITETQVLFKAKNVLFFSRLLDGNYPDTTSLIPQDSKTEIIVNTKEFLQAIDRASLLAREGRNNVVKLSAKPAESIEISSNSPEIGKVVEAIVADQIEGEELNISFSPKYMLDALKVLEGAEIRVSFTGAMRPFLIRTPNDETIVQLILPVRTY

[2] = tested on: E. coli clamp; conditions: cited from earlier work
[3] = tested on: viability; conditions: some effects on DNA damage response and mutagenesis; cited from earlier work

Substance: FAM-Ahx-DDAMGLALDE-NH2
- binding (FP response) ([1]; pH 7.5): lack of binding; also recorded: deficient in clamp binding in FP assays

Substance: QLSLF
- affinity class in words [1]: only micromolar affinity
- affinity class in words [2]: submicromolar affinity

Substance: QLSLPL [εL]
- effect on viability [3]: no effect on viability

Substance: ATSMAF [εQ]
- effect on viability [3]: no effect on viability
